Values quoted from earlier work in patent publication US20080234352A1, “Controlled release solid dispersions” (EGALET A/S, priority 2001, published 2008).
Where two headings read alike, the source gives them in different places.

Columns and labels:
[1] = not given; remark: listed apart in the source

Compound	pKa (pKa2)	pKa (pKa3)	pKa (pKa1)	also measured
CN [Methylamine]	–	–	–	pKa (no step given): 10.64
O=S(=O)(O)CCCN1CCN(CCO)CC1 [EPPS, 4-(2-Hydroxyethyl)-I-piperazinepropane sulfonic acid]	–	–	–	pKa (no step given): 8.00
O=C(O)c1ccccc1C(=O)O [Phthalic]	–	–	–	pKa (no step given): 2.90
CC(CC(=O)O)(CC(=O)O)C(=O)O [2-Methylpropane-1,2,3-triscarboxylic]	5.02	7.20	–	–
O=C(O)c1cc(C(=O)O)cc(C(=O)O)c1 [Benzene-1,3,5-tricarboxylic (trimesic)]	3.98	4.85	3.16	–
O=C(O)CC1(CC(=O)O)CCCC1 [I,I-Cyclopentanediacetic, I,I-Cyclopentanediacetic (3,3 tetramethylene glutaric acid)]	6.70	–	3.82	–
O=C(O)c1cccc(C(=O)O)c1C(=O)O [Benzene-1,2,3-tricarboxylic (hemimellitic)]	4.25	5.87	2.98	–
O=S(=O)(O)CCN1CCN(CCS(=O)(=O)O)CC1 [PIPES, 1,4-Piperazinebis-(ethanesulfonic acid)]	–	3.00	–	pKa (pKa4): 6.8
C=C(CC(=O)O)C(=O)O [Itaconic]	5.55	–	3.84	–
O=C(O)c1cc(C(=O)O)c(C(=O)O)c(C(=O)O)c1C(=O)O [Benzenepentacarboxylic]	2.95	3.94	–	pKa (pKa4): 5.07; pKa (pKa5): 6.25
O=C(O)c1cc(C(=O)O)c(C(=O)O)cc1C(=O)O [Benzene-1,2,4,5-tetracarboxylic (pyromellitic)]	3.13	4.44	2.43	pKa (pKa4): 5.61
O=C(O)CC(C(=O)O)C(CC(=O)O)C(=O)O (stereo not drawn) [Butane-1,2,3,4-tetracarboxylic]	4.38	5.45	–	pKa (pKa4): 6.63
O=S(=O)(O)CCCNC(CO)(CO)CO [TAPS, N-Tris(hydroxymethyl)methyl-2-aminopropane suifonic acid]	8.40	–	–	–
COc1ccccc1OCCNCC(O)COc1cccc2[nH]c3ccccc3c12 (racemic) [Carvedilol]	–	–	–	alpha-mediated vasodilatory effects (decreased peripheral resistance and blood pressure) evident within ([1]; administration of an IR formulation): ≤ 30 min; binding to plasma ([1]; in vivo): highly bound; dose excreted unchanged in the urine ([1]; in vivo): less than 2%; dose linearity range ([1]; literature): 6.25 to 50 mg; time to peak plasma concentrations ([1]; oral administration): one to two; absorption in the large intestine, share of the total absorption ([1]; timed-release capsules, study by Nolte et al): approximately 10%
O=S(=O)(O)CCCNC1CCCCC1 [CAPS, 3-Cyclohexylamino-I-propanesulfonic acid]	10.40	–	–	–
O=C(O)CC(O)C(=O)O (stereo not drawn) [Malic]	5.05	–	3.40	–
CN(C)C [Trimethylamine]	–	–	–	pKa (no step given): 9.74
COc1cc2c(cc1OC)[C@@]13CCN4CC5=CCO[C@H]6CC(=O)N2[C@H]1[C@H]6[C@H]5C[C@H]43.O.O.O.O [Brucine tetrahydrate]	7.95	–	2.30	–
O=C(O)C(O)c1ccccc1 (stereo not drawn) [Mandelic]	–	–	–	pKa (no step given): 3.36
